{"source": "ChEMBL document CHEMBL1201862", "about": "“PubChem BioAssay data set” (2004)", "experiment_in_all_cases": "DTP human tumour cell line panel, 48 h", "key": {"MOLT-4": {"test_system": "MOLT-4"}, "T47D": {"test_system": "T47D"}, "SF-539": {"test_system": "SF-539"}, "UO-31": {"test_system": "UO-31"}, "EKVX": {"test_system": "EKVX"}, "MCF7": {"test_system": "MCF7"}, "SF-268": {"test_system": "SF-268"}, "SNB-19": {"test_system": "SNB-19"}, "SK-MEL-5": {"test_system": "SK-MEL-5"}, "HT-29": {"test_system": "HT-29"}, "OVCAR-8": {"test_system": "OVCAR-8"}, "HOP-92": {"test_system": "HOP-92"}, "HCC 2998": {"test_system": "HCC 2998"}, "CCRF-CEM": {"test_system": "CCRF-CEM"}, "BT-549": {"test_system": "BT-549"}, "HCT-15": {"test_system": "HCT-15"}, "SN12C": {"test_system": "SN12C"}, "OVCAR-3": {"test_system": "OVCAR-3"}, "NCI-H23": {"test_system": "NCI-H23"}, "M14": {"test_system": "M14"}, "UACC-62": {"test_system": "UACC-62"}, "CAKI-1": {"test_system": "CAKI-1"}, "UACC-257": {"test_system": "UACC-257"}, "PC-3": {"test_system": "PC-3"}, "DU-145": {"test_system": "DU-145"}, "TK-10": {"test_system": "TK-10"}, "NCI-H226": {"test_system": "NCI-H226"}, "Malme-3M": {"test_system": "Malme-3M"}, "HCT-116": {"test_system": "HCT-116"}, "SK-MEL-28": {"test_system": "SK-MEL-28"}, "NCI/ADR-RES": {"test_system": "NCI/ADR-RES"}, "SF-295": {"test_system": "SF-295"}, "U-251": {"test_system": "U-251"}, "COLO 205": {"test_system": "COLO 205"}, "A549": {"test_system": "A549"}, "KM12": {"test_system": "KM12"}, "OVCAR-4": {"test_system": "OVCAR-4"}, "ACHN": {"test_system": "ACHN"}, "HOP-62": {"test_system": "HOP-62"}, "SR": {"test_system": "SR"}, "NCI-H522": {"test_system": "NCI-H522"}, "SW-620": {"test_system": "SW-620"}, "K562": {"test_system": "K562"}, "MDA-MB-435": {"test_system": "MDA-MB-435"}, "MDA-N": {"test_system": "MDA-N"}, "SK-MEL-2": {"test_system": "SK-MEL-2"}, "RXF 393": {"test_system": "RXF 393"}, "786-0": {"test_system": "786-0"}, "IGROV-1": {"test_system": "IGROV-1"}, "A498": {"test_system": "A498"}, "NCI-H460": {"test_system": "NCI-H460"}, "MDA-MB-231": {"test_system": "MDA-MB-231"}, "SK-OV-3": {"test_system": "SK-OV-3"}, "HL-60": {"test_system": "HL-60"}, "SNB-75": {"test_system": "SNB-75"}, "Hs-578T": {"test_system": "Hs-578T"}, "OVCAR-5": {"test_system": "OVCAR-5"}, "RPMI-8226": {"test_system": "RPMI-8226"}, "LOX IMVI": {"test_system": "LOX IMVI"}}, "note": "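Protocol summary: plate cells (96-well), add compound at 5 concentrations, incubate 48 h, interpolate endpoints linearly. The concentration for 50% growth inhibition is given as GI50.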 Calls of active or inactive are those of the source. Cut-off read from the data, not from the text of the source: active = GI50 up to about 1.1 µM and inactive = higher.", "data": [{"smiles": "COc1cc(/C=C/C(=O)c2c([O-])on[n+]2-c2ccccc2)ccc1O", "values": [{"measurement": "GI50", "setting": "MOLT-4", "value": "2.2 µM (inactive)"}, {"measurement": "GI50", "setting": "T47D", "value": "2.77 µM (inactive)"}, {"measurement": "GI50", "setting": "SF-539", "value": "2.58 µM (inactive)"}, {"measurement": "GI50", "setting": "UO-31", "value": "3.25 µM (inactive)"}, {"measurement": "GI50", "setting": "EKVX", "value": "3.72 µM (inactive)"}, {"measurement": "GI50", "setting": "MCF7", "value": "3.49 µM (inactive)"}, {"measurement": "GI50", "setting": "SF-268", "value": "3.89 µM (inactive)"}, {"measurement": "GI50", "setting": "SNB-19", "value": "4.82 µM (inactive)"}, {"measurement": "GI50", "setting": "SK-MEL-5", "value": "3.78 µM (inactive)"}, {"measurement": "GI50", "setting": "HT-29", "value": "2.37 µM (inactive)"}, {"measurement": "GI50", "setting": "OVCAR-8", "value": "2.4 µM (inactive)"}, {"measurement": "GI50", "setting": "HOP-92", "value": "2.4 µM (inactive)"}, {"measurement": "GI50", "setting": "HCC 2998", "value": "2.27 µM (inactive)"}, {"measurement": "GI50", "setting": "CCRF-CEM", "value": "1.37 µM (inactive)"}, {"measurement": "GI50", "setting": "BT-549", "value": "2.99 µM (inactive)"}, {"measurement": "GI50", "setting": "HCT-15", "value": 2.13, "unit": "µM"}, {"measurement": "GI50", "setting": "SN12C", "value": "2.03 µM (inactive)"}, {"measurement": "GI50", "setting": "OVCAR-3", "value": "2.29 µM (inactive)"}, {"measurement": "GI50", "setting": "NCI-H23", "value": "2.69 µM (inactive)"}, {"measurement": "GI50", "setting": "M14", "value": "3.43 µM (inactive)"}, {"measurement": "GI50", "setting": "UACC-62", "value": "3.44 µM (inactive)"}, {"measurement": "GI50", "setting": "CAKI-1", "value": "3 µM (inactive)"}, {"measurement": "GI50", "setting": "UACC-257", "value": "3.87 µM (inactive)"}, {"measurement": "GI50", "setting": "PC-3", "value": "6.58 µM (inactive)"}, {"measurement": "GI50", "setting": "DU-145", "value": "2.34 µM (inactive)"}, {"measurement": "GI50", "setting": "TK-10", "value": "3.29 µM (inactive)"}, {"measurement": "GI50", "setting": "NCI-H226", "value": "5.53 µM (inactive)"}, {"measurement": "GI50", "setting": "Malme-3M", "value": "2.78 µM (inactive)"}, {"measurement": "GI50", "setting": "HCT-116", "value": "2.19 µM (inactive)"}, {"measurement": "GI50", "setting": "SK-MEL-28", "value": "2.62 µM (inactive)"}, {"measurement": "GI50", "setting": "NCI/ADR-RES", "value": "2.48 µM (inactive)"}, {"measurement": "GI50", "setting": "SF-295", "value": "7.89 µM (inactive)"}, {"measurement": "GI50", "setting": "U-251", "value": "3.1 µM (inactive)"}, {"measurement": "GI50", "setting": "COLO 205", "value": "12.1 µM (inactive)"}, {"measurement": "GI50", "setting": "A549", "value": "4.09 µM (inactive)"}, {"measurement": "GI50", "setting": "KM12", "value": "2.31 µM (inactive)"}, {"measurement": "GI50", "setting": "OVCAR-4", "value": "1.9 µM (inactive)"}, {"measurement": "GI50", "setting": "ACHN", "value": "2.32 µM (inactive)"}, {"measurement": "GI50", "setting": "HOP-62", "value": "4.4 µM (inactive)"}, {"measurement": "GI50", "setting": "SR", "value": "1.53 µM (inactive)"}, {"measurement": "GI50", "setting": "NCI-H522", "value": "1.73 µM (inactive)"}, {"measurement": "GI50", "setting": "SW-620", "value": "2.18 µM (inactive)"}, {"measurement": "GI50", "setting": "K562", "value": "2.7 µM (inactive)"}, {"measurement": "GI50", "setting": "MDA-MB-435", "value": "2.75 µM (inactive)"}, {"measurement": "GI50", "setting": "MDA-N", "value": "2.32 µM (inactive)"}, {"measurement": "GI50", "setting": "SK-MEL-2", "value": "2.31 µM (inactive)"}, {"measurement": "GI50", "setting": "RXF 393", "value": "2 µM (inactive)"}, {"measurement": "GI50", "setting": "786-0", "value": "2 µM (inactive)"}, {"measurement": "GI50", "setting": "IGROV-1", "value": "2.86 µM (inactive)"}, {"measurement": "GI50", "setting": "A498", "value": "7.46 µM (inactive)"}, {"measurement": "GI50", "setting": "NCI-H460", "value": "2.07 µM (inactive)"}, {"measurement": "GI50", "setting": "MDA-MB-231", "value": "2.98 µM (inactive)"}, {"measurement": "GI50", "setting": "SK-OV-3", "value": "3.73 µM (inactive)"}, {"measurement": "GI50", "setting": "HL-60", "value": "0.853 µM (active)"}, {"measurement": "GI50", "setting": "SNB-75", "value": "2.5 µM (inactive)"}, {"measurement": "GI50", "setting": "Hs-578T", "value": "2.43 µM (inactive)"}, {"measurement": "GI50", "setting": "OVCAR-5", "value": "11 µM (inactive)"}, {"measurement": "GI50", "setting": "RPMI-8226", "value": "1.77 µM (inactive)"}, {"measurement": "GI50", "setting": "LOX IMVI", "value": "2.09 µM (inactive)"}]}]}
